Marks after values point to notes of the source that are not given here.
Test system: osimertinib-resistant (OR) H1650 cells
Experiment: In-cell immunostaining of protein expression and phosphorylation, osimertinib-resistant H1650 cells
Type: cell-based, human
Conditions: 6 h, VEH = 100
Description: Generation of erlotinib, afatinib and osimertinib-resistant cells. Cells were incubated in vitro with increasing concentrations of vehicle control or erlotinib or osimertinib until after ˜6 weeks the HCC827 and H1975 and H1650 cells grew with similar kinetics to sensitive cells in either erlotinib ([…]) or osimertinib ([…]), respectively. Afatinib-resistant cells were created in vivo by repeated high dosing until tumors disappeared and then regrew, as previously described.
Assessments of protein expression and protein phosphorylation. Multi-channel fluorescence HCS microscopes perform true in-cell western blotting. Three independent cultures derived from three thawed vials of cells of a tumor were sub-cultured into individual 96-well plates. Twenty-four hours after plating, the cells are transfected with a control plasmid or a control siRNA, or with an empty vector plasmid or with plasmids to express various proteins. After another 24 hours, the cells are ready for drug exposure(s). At various time-points after the initiation of drug exposure, cells are fixed in place using paraformaldehyde and using Triton X100 for permeabilization. Standard immunofluorescent blocking procedures are employed, followed by incubation of different wells with a variety of validated primary antibodies and subsequently validated fluorescent-tagged secondary antibodies are added to each well. The microscope determines the background fluorescence in the well and in parallel randomly determines the mean fluorescent intensity of 100 cells per well.

## Nc1nc2[nH]cc(CCc3ccc(C(=O)N[C@@H](CCC(=O)O)C(=O)O)cc3)c2c(=O)[nH]1 [PEM, Pemetrexed]
  BCL-XL expression: 85*
  ERK2 expression: 100
  FLIP-s expression: 93
  MCL-1 expression: 86*

From US20220008359A1, “COMBINATION ANTI-CANCER PRODUCTS AND METHODS” (priority 2020, published 2022)
